Usually Km stands for the substrate concentration at which the rate is half of its maximum.

Consider 1 molecule from article PMC4226186, “Biobleaching of Industrial Important Dyes with Peroxidase Partially Purified from Garlic” (The Scientific World Journal, 2014).

The assay has as its system T1, garlic peroxidase (Allium sativum peroxidase).
T1 construct: gene class III plant peroxidase; native, partially purified from peeled garlic (ammonium sulphate, dialysis, Sephadex G-200)
The assay is described as follows: absorbance change on o-dianisidine oxidation; Lineweaver-Burk plot. In kind it is biochemical. Conditions: co-substrate H2O2; 0.05 M sodium phosphate pH 6.0; 20-120 mM o-dianisidine; partially purified enzyme.

Consider `COc1cc(-c2ccc(N)c(OC)c2)ccc1N` [o-dianisidine], for which the Km turned out to be 25 mM.
